Test results from patent US20080306028A1, “Erianin Salts, Their Preparation Methods and Pharmaceutical Compositions Containing the Same” (priority 2005, published 2008).
Where two headings read alike, the source gives them in different places.

Experiments:
[1] = system: S180 tumor; conditions: for Weight 10 d: body weight day 10; for Tumor weight / rate of tumor inhibition: day 10; for Weight 0 d: body weight day 0
From the text: Samples: disodium phosphate of Erianin (AP, prepared by the process of example 1) prepared the concentration needed with physiologic saline.
Control medicine: cyclophosphamide for injection (CTX), Shanghai Hualian Pharmaceutical Co., Ltd, batch number: 020806. dissolved with physiologic saline for use.
Fifty Kunming mice, female, weight: […], provided by the animal house in Shanghai Institute of Pharmaceutical Industry.
Two S180 ascites tumor mice, provided by the animal house in Shanghai Institute of Pharmaceutical Industry.
Drawing ascites under aseptic condition from S180 ascites tumor mice, counting the cells, diluting to 1-2×10^7/ml with physiologic saline, giving subcutaneous inoculation in the armpit of the mice with 0.2 ml each, randomly dividing the mice equally into five groups the next day, ten in each group.
Dosage for administration (mg/kg./d): AP 25 mg/kg, 75 mg/kg, 225 mg/kg
Means of administration: intravenous injection
The control medicine, cyclophosphamide, administered by intravenous injection, the dosage being 30 mg/kg×9d.
And setting up blank control group.
Administering medicine to the mice by weight the next day of inoculation, […] 0.5 ml/20 g for 9 days, by weight, and putting them to death on the tenth day after inoculation, weighing the tumor and calculating the rate of tumor inhibition.
Assessing the result according to the following formula: […]

[2] = system: Kunming mice; test: LD50 determination of disodium phosphate of Erianin; format: in vivo; conditions: for deaths, death rate in total: 10 mice
Experimental: Experimental animal: Kunming mice, provided by Shanghai Slac Laboratory Animal Co., Ltd., weight being between 18˜22 g, half and half of female and male.
Reagent: 0.9% NaCl, disodium phosphate of Erianin (AP), provided by Zhejiang Cell Biomedical Research Co., Ltd., which is prepared by the process above, bitter acid.
(1) Experimental animal: Kunming mice, set up in 7 groups, 10 mice every group and half and half of female and male. Marked by bitter acid.
(2) In every group, administering by vena caudalis injection according to body weight of 1300 mg/kg, 1250 mg/kg, 1200 mg/kg, 1150 mg/kg, 1100 mg/kg, 1050 mg/kg, 1000 mg/kg.
(3) Observing at 0.25 h, 0.5 h, 1 h, 2 h, 4 h, 24 h respectively after administration and recording the death rate; then observing once every day and recording the death rate (table 1) for 14 days; putting the mice still alive to death on the 15th day and giving pathological anatomy.

[3] = solubility in water; format: physicochemical; conditions: product of example 1
Experimental: As the water-solubility of Erianin is low, the solubility in water being just <1 mg/ml, its preparation performance and clinical application are limited, so it is necessary to study the salts that can improve its water-solubility. At present, there is not any literature on the salts of Erianin and it's preparing process.
Cooling the crude acyl chloride in ice bath, adding sodium hydroxide solution (2 mol/L) while stirring till the PH value of the mixture is between 8˜10, stirring for 8 hours at 50° C.˜80° C., filtering to remove the insoluble substance, decompressing to evaporate most of the solvent, cooling for the white solid to be separated, which is the crude disodium phosphate of Erianin; Dissolving the crude product with ethanol while heated, filtering to remove the insoluble solid while hot, and cooling the filtrate for separated crystal as pure disodium phosphate of Erianin (6.0 g), a white crystal product with a yield of 86% m.p. 266-269° C., (splitting), dissolubility in water: 200 mg/ml.

[4] = system: tumor cell strain K256; conditions: among dihydrobibenzyls and phenanthrenes in Dendrobium chrysotoxum; cited from earlier work
[5] = system: liver cancer of mouse; conditions: cited from earlier work
[6] = background statement; cited from earlier work
[7] = system: human leukemia HL-60 cells; conditions: cited from earlier work

## 3,4,5,4′-tetramethoxyl diphenylethane-3′-O-disodic phosphate [AP]
[1]; 25 mg/kg i.v. for 9 days
  Weight 10 d: 22.93 ± 1.28 g
  Tumor weight: 1.42 ± 0.26
  rate of tumor inhibition: 42%
[1]; 25 mg/kg i.v.
  Weight 0 d: 18.37 ± 1.58 g
[1]; 75 mg/kg i.v. for 9 days
  Weight 10 d: 22.75 ± 2.25 g
  Tumor weight: 0.82 ± 0.20
  rate of tumor inhibition: 67%
[1]; 75 mg/kg i.v.
  Weight 0 d: 18.41 ± 1.74 g
[1]; 225 mg/kg i.v. for 9 days
  Weight 10 d: 22.01 ± 3.46 g
  Tumor weight: 0.69 ± 0.08
  rate of tumor inhibition: 72%
[1]; 225 mg/kg i.v.
  Weight 0 d: 19.65 ± 1.26 g
[2]; 1000 mg/kg i.v.
  deaths, death rate in total: 0
[2]; 1050 mg/kg i.v.
  deaths, death rate in total: 1
[2]; 1050 mg/kg i.v., day 1
  deaths: 1
[2]; 1100 mg/kg i.v.
  deaths, death rate in total: 3
[2]; 1100 mg/kg i.v., day 1
  deaths: 3
[2]; 1150 mg/kg i.v.
  deaths, death rate in total: 1
[2]; 1150 mg/kg i.v., day 1
  deaths: 1
[2]; 1200 mg/kg i.v.
  deaths, death rate in total: 3
[2]; 1200 mg/kg i.v., day 5
  deaths: 1
[2]; 1200 mg/kg i.v., day 6
  deaths: 1
[2]; 1200 mg/kg i.v., hours 0-4
  deaths: 1
[2]; 1250 mg/kg i.v.
  deaths, death rate in total: 6
[2]; 1250 mg/kg i.v., day 1
  deaths: 3
[2]; 1250 mg/kg i.v., day 2
  deaths: 2
[2]; 1250 mg/kg i.v., hours 0-4
  deaths: 1
[2]; 1300 mg/kg i.v.
  deaths, death rate in total: 7
[2]; 1300 mg/kg i.v., day 1
  deaths: 6
[2]; 1300 mg/kg i.v., day 3
  deaths: 1
[2]; Kunming mice, vena caudalis injection, 14 days observation
  LD50: 1243.0377 mg/kg
[2]; mice died during the experiment and mice executed after 14 days
  pathological anatomy: no obvious pathological change
[3]
  dissolubility in water: 200 mg/mL

## O=P1(N(CCCl)CCCl)NCCCO1 (centres unmarked) [CTX, cyclophosphamide, reference compound]
[1]; 30 mg/kg i.v.
  Weight 0 d: 19.78 ± 1.20 g
[1]; 30 mg/kg×9d i.v.
  Weight 10 d: 19.58 ± 2.54 g
  Tumor weight: 0.41 ± 0.17
  rate of tumor inhibition: 83%

## COc1ccc(CCc2cc(OC)c(OC)c(OC)c2)cc1O [Erianin]
[4]
  inhibitory effect on the growth of tumor cell strain K256: the most active
[5]
  tumor inhibitory rate: 50.82%
[6]
  solubility in water: < 1 mg/mL
[7]
  growth of human leukemia HL-60 cells: significantly inhibited
